Experimental data: patent US6887847B2, “Virus derived antimicrobial peptides” (University of Pittsburgh, priority 2001, dated 2005)
In brackets after ≈: the same amount, converted by molar mass. Read-outs that look alike come from different tables or passages of the source. Residues, ends and D or L forms follow the SMILES beside them. No end group written: not given here.

What was measured:
Staphylococcus aureus = assay: Bacterial lysis (broth dilution) assay, MBC; format: cell-based
Text: (§1) The assays for growth inhibition of a microbial target can be used to derive a minimum bactericidal concentration (MBC) value for the peptide, i.e., the concentration of peptide required to kill 99.9% of the microbial sample being tested. This value is well known to those in the art as representative of the effectiveness of a particular antimicrobial agent (e.g., an antibiotic) against a particular organism or group of organisms. In assays to detect the MBC of a peptide, growth inhibition of a bacterial population also can be measured with reference to the number of colony forming units (cfu) after exposure to a peptide relative to a control experiment without a peptide.
(§2) Bacterial lysis assay. Bacterial lysis assays were conducted in a manner similar to that described previously (Lehrer, R. I., M. E. Selsted, D. Szklarek, and F. J. 1983. Infect. Immun. 42: 10-4, 1983; Miller, M. A., R. F. Garry, J. M. Jaynes, and R. C. Montelaro, AIDS Res Hum Retroviruses 7: 511-519, 1991). Bacterial suspensions were cultured in Luria-Bertani Broth to mid-log growth phase and washed by two cycles of centrifugation and suspension in 10 mM phosphate buffer. The Abs600 of the suspension was adjusted with 10 mM phosphate buffer such that, upon dilution, 5-10×10^5 cfu/mL would be treated in the assay. Bacteria were incubated for 1 h with two-fold dilutions of peptides (100 μM to 100 nM) in 96-well plates using 10 mM phosphate buffer, pH 7.2, as a diluent. Ten-fold dilutions of bacteria were performed to 1:1000; a 100 μl aliquot from each condition was spread on the surface of tryptic soy agar plates (Difco, Detroit, Mich.) which were incubated overnight. Colonies of surviving bacteria (cfu, colony-forming units) were counted and compared to untreated controls to determine the amount of peptide-induced killing under each condition. Log killing is defined as the log of the ratio of cfu present before and after treatment with peptide. The minimal bactericidal concentration, MBC, is the peptide concentration at which 99.9% (three log) killing is achieved (Pearson et al., Antimicrob. Agents Chemother. 18: 699-708, 1980).
(§3) A limitation of many host-derived antimicrobial peptides is their decreased activity at physiologic (150 mM) NaCl concentration. See Friedrich et al., Antimicrobial Agents and Chemotherapy 43:1542-1548. The peptides WLSA-5 (SEQ ID NO:3) and LL37 were tested against the two index strains at physiologic NaCl. […] The activity of eLLPs and LBUs of this invention were compared to an expanded list of clinical bacterial isolates. These are summarized in Table 2 by comparing their MBCs in phosphate buffer alone (low salt) and phosphate buffer containing 150 mM NaCl (physiologic conditions). Inspection of this table would lead one skilled in the art to conclude that the activity of eLLPs and LBUs compare favorably to the host derived antimicrobial peptides as it relates to the spectrum and potency of antimicrobial activity.

Pseudomonas aeruginosa = format: cell-based
Text: as §1, §2, §3

[1] = test system: Methicillin Resistant S. aureus; format: cell-based, Staphylococcus aureus; conditions: 0 mM NaCl (phosphate buffer, low salt)
Text: as §1
Bacterial lysis assay. Bacterial lysis assays were conducted in a manner similar to that described previously (Lehrer, R. I., M. E. Selsted, D. Szklarek, and F. J. 1983. Infect. Immun. 42: 10-4, 1983; Miller, M. A., R. F. Garry, J. M. Jaynes, and R. C. Montelaro, AIDS Res Hum Retroviruses 7: 511-519, 1991). Bacterial suspensions were cultured in Luria-Bertani Broth to mid-log growth phase and washed by two cycles of centrifugation and suspension in 10 mM phosphate buffer. […] Colonies of surviving bacteria (cfu, colony-forming units) were counted and compared to untreated controls to determine the amount of peptide-induced killing under each condition. […]

[2] = test system: differentiated primary human airway epithelial cells; assay: Cystic fibrosis cell culture model: transepithelial resistance; format: cell-based; conditions: compared with LL-37
Procedure: Preparation of eukaryotic cells. Differentiated primary cell cultures of human bronchial epithelial (HBE) cells (CF and non-CF) on an air-liquid interface were prepared in antibiotic free media. See Zabner, J. et al., 1996, J Virol. 70:6994-7003. These filters were incubated with P. aeruginosa followed by washing to remove non-adherent bacteria. Individual filters were next exposed to peptide at increasing concentrations. In order to release viable bacteria, trypsin/EDTA was added and these preparations were plated on standard bacteriologic media to quantify bacterial survival. Similarly prepared cells were monitored for peptide toxicity by measuring transepithelial resistance. The advantage of this model is that it can measure the selective toxicity of peptide for bacterium versus host cells under identical conditions.
Based on above in vitro findings, WLSA-5 (SEQ ID NO:3) was tested in a scenario that more accurately assessed its selective toxicity. For this assay, a cell culture model of bacterial adherence was established that utilized differentiated primary human airway epithelial cells. […] The ability of peptide to kill bacteria is monitored as a function of viable bacteria associated with the epithelial cells after peptide exposure. […]

[3] = 0 mM NaCl (phosphate buffer, low salt)

Compound	MBC (Staphylococcus aureus; [3])	MBC (Staphylococcus aureus; 150 mM NaCl (physiologic))	MBC (Pseudomonas aeruginosa; 150 mM NaCl (physiologic)) [µM]	further results
CC(C)[C@H](NC(=O)[C@H](CCCNC(=N)N)NC(=O)[C@H](CCCNC(=N)N)NC(=O)[C@@H](NC(=O)[C@@H](NC(=O)[C@H](CCCNC(=N)N)NC(=O)[C@@H](N)CCCNC(=N)N)C(C)C)C(C)C)C(=O)N[C@@H](CCCNC(=N)N)C(=O)N[C@@H](CCCNC(=N)N)C(=O)N[C@H](C(=O)N[C@H](C(=O)N[C@@H](CCCNC(=N)N)C(=O)N[C@@H](CCCNC(=N)N)C(=O)N[C@H](C(=O)N[C@H](C(=O)N[C@@H](CCCNC(=N)N)C(=O)N[C@H](C(=O)N[C@H](C(=O)N[C@@H](CCCNC(=N)N)C(=O)N[C@@H](CCCNC(=N)N)C(=O)N[C@H](C(=O)N[C@H](C(=O)N[C@@H](CCCNC(=N)N)C(=O)N[C@@H](CCCNC(=N)N)C(=O)O)C(C)C)C(C)C)C(C)C)C(C)C)C(C)C)C(C)C)C(C)C)C(C)C [LBU-2] (H-RRVVRRVRRVVRRVVRVVRRVVRR-OH)	1500 nM			
CC(C)[C@H](N)C(=O)N[C@@H](CCCNC(=N)N)C(=O)N[C@@H](CCCNC(=N)N)C(=O)N[C@H](C(=O)N[C@H](C(=O)N[C@@H](CCCNC(=N)N)C(=O)N[C@@H](CCCNC(=N)N)C(=O)N[C@H](C(=O)N[C@H](C(=O)N[C@@H](CCCNC(=N)N)C(=O)N[C@H](C(=O)N[C@H](C(=O)N[C@@H](CCCNC(=N)N)C(=O)N[C@@H](CCCNC(=N)N)C(=O)N[C@H](C(=O)N[C@H](C(=O)N[C@@H](CCCNC(=N)N)C(=O)N[C@@H](CCCNC(=N)N)C(=O)N[C@H](C(=O)N[C@@H](CCCNC(=N)N)C(=O)N[C@@H](CCCNC(=N)N)C(=O)N[C@H](C(=O)N[C@H](C(=O)N[C@@H](CCCNC(=N)N)C(=O)N[C@@H](CCCNC(=N)N)C(=O)N[C@H](C(=O)N[C@H](C(=O)N[C@@H](CCCNC(=N)N)C(=O)N[C@H](C(=O)N[C@H](C(=O)N[C@@H](CCCNC(=N)N)C(=O)N[C@@H](CCCNC(=N)N)C(=O)N[C@H](C(=O)N[C@H](C(=O)N[C@@H](CCCNC(=N)N)C(=O)N[C@@H](CCCNC(=N)N)C(=O)O)C(C)C)C(C)C)C(C)C)C(C)C)C(C)C)C(C)C)C(C)C)C(C)C)C(C)C)C(C)C)C(C)C)C(C)C)C(C)C)C(C)C)C(C)C)C(C)C)C(C)C [LBU-3] (H-VRRVVRRVVRVVRRVVRRVRRVVRRVVRVVRRVVRR-OH; N-terminus and C-terminus assumed)	1500 nM	1500 nM (≈ 6.92 µg/mL)		
CC[C@H](C)[C@H](NC(=O)[C@H](C)NC(=O)[C@H](CCCNC(=N)N)NC(=O)[C@H](CS)NC(=O)[C@H](C)NC(=O)[C@H](CCCNC(=N)N)NC(=O)[C@H](CCC(N)=O)NC(=O)[C@@H](NC(=O)[C@@H](NC(=O)[C@H](CCCNC(=N)N)NC(=O)[C@@H](NC(=O)[C@@H](NC(=O)[C@@H](N)CCCNC(=N)N)C(C)C)[C@@H](C)CC)C(C)C)C(C)C)C(=O)N[C@@H](CCCNC(=N)N)C(=O)N[C@@H](Cc1c[nH]cn1)C(=O)N[C@H](C(=O)N[C@H](C(=O)N[C@@H](CCCNC(=N)N)C(=O)N[C@@H](CCCNC(=N)N)C(=O)N[C@H](C(=O)N[C@@H](CCCNC(=N)N)C(=O)N[C@@H](CCC(N)=O)C(=O)NCC(=O)N[C@@H](CC(C)C)C(=O)N[C@@H](CCCNC(=N)N)C(=O)N[C@@H](CCCNC(=N)N)C(=O)N[C@H](C(=O)N[C@@H](CC(C)C)C(=O)O)[C@@H](C)CC)[C@@H](C)CC)C(C)C)[C@@H](C)CC [SA-5] (H-RVIRVVQRACRAIRHIVRRIRQGLRRIL-OH; N-terminus and C-terminus assumed)	1000 nM		1 (≈ 3.46 µg/mL)	MBC (Pseudomonas aeruginosa; [3]): 1 µM
CC(C)[C@H](NC(=O)[C@H](Cc1c[nH]c2ccccc12)NC(=O)[C@H](CCCNC(=N)N)NC(=O)[C@H](CCCNC(=N)N)NC(=O)[C@@H](NC(=O)[C@@H](NC(=O)[C@H](CCCNC(=N)N)NC(=O)[C@@H](NC(=O)[C@@H](NC(=O)[C@@H](N)CCCNC(=N)N)C(C)C)C(C)C)C(C)C)C(C)C)C(=O)N[C@@H](CCCNC(=N)N)C(=O)N[C@@H](CCCNC(=N)N)C(=O)O [WLBU-1] (H-RVVRVVRRWVRR-OH; N-terminus and C-terminus assumed)	30,000 nanomolar	10,000 nanomolar		
CC[C@H](C)[C@H](NC(=O)[C@H](C)NC(=O)[C@H](CCCNC(=N)N)NC(=O)[C@H](CS)NC(=O)[C@H](Cc1c[nH]c2ccccc12)NC(=O)[C@H](CCCNC(=N)N)NC(=O)[C@H](CCC(N)=O)NC(=O)[C@@H](NC(=O)[C@@H](NC(=O)[C@H](CCCNC(=N)N)NC(=O)[C@@H](NC(=O)[C@H](Cc1c[nH]c2ccccc12)NC(=O)[C@@H](N)CCCNC(=N)N)[C@@H](C)CC)C(C)C)C(C)C)C(=O)N[C@@H](CCCNC(=N)N)C(=O)N[C@@H](Cc1c[nH]cn1)C(=O)N[C@H](C(=O)N[C@@H](Cc1c[nH]c2ccccc12)C(=O)N[C@@H](CCCNC(=N)N)C(=O)N[C@@H](CCCNC(=N)N)C(=O)N[C@H](C(=O)N[C@@H](CCCNC(=N)N)C(=O)N[C@@H](CCC(N)=O)C(=O)NCC(=O)N[C@@H](CC(C)C)C(=O)N[C@@H](CCCNC(=N)N)C(=O)N[C@@H](CCCNC(=N)N)C(=O)N[C@@H](Cc1c[nH]c2ccccc12)C(=O)N[C@@H](CC(C)C)C(=O)N[C@@H](CCCNC(=N)N)C(=O)N[C@H](C(=O)N[C@H](C(=O)O)C(C)C)C(C)C)[C@@H](C)CC)[C@@H](C)CC [WLSA-5] (H-RWIRVVQRWCRAIRHIWRRIRQGLRRWLRVV-OH)	1000 nM	1000 nM (≈ 4.18 µg/mL)	1 (≈ 4.18 µg/mL)	MBC (Pseudomonas aeruginosa; [3]): 1 µM; MBC [1]: 0.15 µM; effect on transepithelial resistance [2]: transient and not significantly different from LL-37
LL37: human cathelicidin, processed form a 37-amino acid amphiphilic α-helical cationic host derived antimicrobial peptide (LLGDFFRKSKEKIGKEFKRIVQRIKDFLRNLVPRTES; Antibacterial peptide LL-37; UniProt P49913 134-170, looked up) [reference compound]				P. aeruginosa killing, influence of NaCl (Pseudomonas aeruginosa; low salt vs physiologic (150 mM) NaCl): not affected by NaCl inclusion
RRVVRRVRRVVRRVVRVVRRVVRRVRRVVRRVVRVVRRVVRR [LBU-3.5]			0.4	
RVVRVVRRVVRRVRRVVRRVVRVVRRVVRRVRRVVRRVVRVVRRVVRR [LBU-4]	800 nM	800 nM		
